Measurements: US5719151A, “Substituted benzene compounds” (priority 1990, dated 1998)
Like-named read-outs stand apart in the source and are kept apart here.

Key:
[1] = tested on: Trypanosoma brucei rhodesiense; test: Growth of Trypanosoma brucei rhodesiense in axenic culture (growth inhibition); type: cell-based
Description: (§1) 1. TRYPANOSOMES: Stabilates of two clones, GUP 2889 and GUP 2814 were used.
Prior to propagation in vitro cell free culture conditions the parasites from stabilates were expanded in CD1 (8-9 week old) female mice. Infected mouse blood obtained by cardiac puncture in EMEM* with 20 U/ml heparin was used for the preparation of blood smears for immunofluorescence analysis.
(§2) Antibody mediated lysis of a specific VAT of bloodstream form trypanosomes was performed by incubating an appropriate aliquot of a recently prepared trypanosome suspension at room temperature for 1 hour, in appropriately diluted specific antibody and guinea pig complement. The trypanosomes were observed and counted with inverted phase-contrast microscopy at a magnification of 150× to check for viability and to observe lysed trypanosomes, which appeared stumpy and vacuolated.
(§3) Cultures were initiated with aliquots of the above prepared trypanosome suspension. Duplicate T25 flasks, with 10 ml of medium were prepared for each experimental parameter examined. In each experiment the trypanosome density was determined at the initiation of the culture and at the end of the axenic culture period (usually after 18-24 hours) using a Neubaurer haemocytometer.
(§4) The instantaneous rate of switching/cell/generation, σi, has been calculated. These values of σ are estimates of the per capita rate for switching to minor VATs. However, these estimates have been made in populations manipulated to consist of a major VAT, the prevalence of which is much higher than that of minor VATs; switching from minor to major VATs has therefore been assumed to be negligible, as has interswitching between minor VATs. Growth rates, r, have been expressed as population doubling times Td, where Td=loge2/r. Switching rates values are presented in the tables as finite, of, rate estimates.
Two clones of Trypanosoma brucei rhodesiense, GUP 2889 and […] were initiated in culture with viable trypanosomes after in vitro trypanolysis of heterotype VAT 1.22 with GUPM 27.1 monoclonal antibody. Viable populations of these trypanosomes were incubated with various concentrations of the poly(ADP-Ribose)polymerase inhibitors. The effect of each concentration of inhibitor was tested in duplicate in T25 culture flasks set up for the axenic culture inhibition experiments. Growth was monitored after 24 hours of incubation at 37° C. in 4-5% CO2 in air. Relative growth inhibition and frequency of antigenic switching of were calculated.
In this assay a continuously growing bloodstream form trypanosome population was incubated in serial inhibitor dilutions in T25 culture flasks using an inoculum of 2×10^4 ·1×10^5 trypanosomes per ml. After an incubation period of 24-48 hours in axenic culture at 37° C. in a 4-5% CO2 incubator, trypanosomes were counted using a haemocytometer and growth inhibition was determined based on the number of generations (kt) of inhibitor treated cultures compared to controls. […] Growth is reduced by up to 17% when 3-N-formylluminol(3-N-FL) is present in the concentration range of 50-400 μM, Table 7.

[2] = target: poly(ADP-ribose)polymerase (Homo sapiens, UniProt P09874); test: Determination of inhibitory effect on poly(ADP-ribose)polymerase (enzyme activity, Ki, Km); type: biochemical
poly(ADP-ribose)polymerase, sequence (P09874 whole entry): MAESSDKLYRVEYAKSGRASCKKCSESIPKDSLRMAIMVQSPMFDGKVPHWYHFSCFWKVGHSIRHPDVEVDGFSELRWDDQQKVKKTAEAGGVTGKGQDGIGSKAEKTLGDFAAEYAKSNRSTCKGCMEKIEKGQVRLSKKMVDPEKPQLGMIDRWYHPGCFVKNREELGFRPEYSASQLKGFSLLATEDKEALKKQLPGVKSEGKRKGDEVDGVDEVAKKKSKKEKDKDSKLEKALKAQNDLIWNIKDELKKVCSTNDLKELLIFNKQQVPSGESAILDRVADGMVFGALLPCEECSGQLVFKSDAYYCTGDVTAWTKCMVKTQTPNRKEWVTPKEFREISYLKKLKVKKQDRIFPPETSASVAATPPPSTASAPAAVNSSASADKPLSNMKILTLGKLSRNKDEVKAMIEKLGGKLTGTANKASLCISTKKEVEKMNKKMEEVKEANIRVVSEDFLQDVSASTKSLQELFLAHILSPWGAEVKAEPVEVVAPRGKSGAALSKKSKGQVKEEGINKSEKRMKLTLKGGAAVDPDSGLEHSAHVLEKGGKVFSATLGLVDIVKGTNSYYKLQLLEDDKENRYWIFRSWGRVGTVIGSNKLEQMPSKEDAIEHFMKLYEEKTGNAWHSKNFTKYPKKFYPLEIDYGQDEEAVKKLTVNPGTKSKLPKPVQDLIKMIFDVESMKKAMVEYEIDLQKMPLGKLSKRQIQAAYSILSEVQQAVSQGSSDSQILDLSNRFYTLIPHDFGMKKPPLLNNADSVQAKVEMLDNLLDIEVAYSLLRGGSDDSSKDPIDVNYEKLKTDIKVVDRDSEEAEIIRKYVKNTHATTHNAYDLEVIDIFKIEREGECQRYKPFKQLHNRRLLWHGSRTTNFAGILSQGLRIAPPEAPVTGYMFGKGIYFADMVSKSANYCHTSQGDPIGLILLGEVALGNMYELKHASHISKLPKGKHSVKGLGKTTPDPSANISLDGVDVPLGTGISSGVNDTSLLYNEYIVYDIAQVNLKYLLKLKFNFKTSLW
Description: The enzyme activity was assayed by standard procedures (Murray, B. et al., Mutation Research (1986) 165:191-198). This reference also describes the estimation of the Km (Michaelis Constant) values. The estimation of the Ki (inhibitory constant) values was performed by calculating the Km value in the presence or absence of known concentrations of the enzyme inhibitor. Standard biochemical calculations were then used to calculate the Ki value. The smaller K1 values indicate stronger inhibition. The degree of enzyme inhibition shown in the Table was estimated by measuring the enzyme activity in the presence and absence of the indicated concentrations of inhibitor.

[3] = tested on: Trypanosoma brucei rhodesiense (GUP 2814); test: Antigenic switching in Trypanosoma brucei rhodesiense (GUP 2814) in axenic culture, ILTat 1.63 to ILTat 1.22; type: cell-based
Description: as §1
Specific rabbit antisera and ascites fluid against specific Variable Antigen Types were used for trypanolysis and immunofluorescence at the appropriate dilutions.
as §2, §3
The prevalences of VATs in each cultures population were determined using immunofluorescence as follows: contents of one of the duplicate flasks (or both) were transferred to a universal bottle, and the trypanosomes were sedimented by centrifugation at 3,000 rpm at room temperature in a bench-top MSE centrifuge. The trypanosomes were resuspended in 10 μl of 20%(v/v) FCS supplemented EMEM* medium. Samples of this suspension were applied as smears to clean microscope slides coated with 0.1% poly-L-Lysine for immunofluorescence (IF) analysis for the frequency of specific VATs. Prevalence estimates of VATs were based on counts of more than 1000 labeled trypanosomes per flask.
Indirect immunofluorescence on acetone-fixed trypanosomes on slides was performed essentially according to the method of van Meirvenne et al., (Ann. Soc. Belge Med. Trop. (1975) 55: 1-23), using appropriately diluted rabbit antiserum or undiluted monoclonal lantibodies derived from hybridoma culture supernatants. Trypanosomes were visualized with fluorescein isothiocyanate(FITC)-labeled conjugated anti rabbit-FITC antibodies (Sigma:No.F-0382) for VAT 1.22 and 1.3, and with anti-mouse-FITC (Sigma:No.F-0257) for VATs 1.64c, 1.63a and 1.61. These secondary antibodies were diluted in PBS (pH8.0) and also contained Evans Blue (1:10,000 w/v) and Ethidium Bromide (5 μg/ml) as a counterstain.
Estimates of the prevalence of particular trypanosome VATs were based on counts of at least 200 trypanosomes, and at least 1000 trypanosomes were counted if the frequency of positive organisms were very low.
The rate of switching was estimated essentially as described by Turner and Barry (Parasitology (1989) 99: 67-75). Briefly, the size of the trypanosome population expressing aminor VAT was calculated at the time points […] as Nt1 and Nt2 respectively, from the mean total population density and from the prevalence of that VAT in the population.
as §4
Two clones of Trypanosoma brucei rhodesiense, GUP 2889 and […] were initiated in culture with viable trypanosomes after in vitro trypanolysis of heterotype VAT 1.22 with GUPM 27.1 monoclonal antibody. Viable populations of these trypanosomes were incubated with various concentrations of the poly(ADP-Ribose)polymerase inhibitors. […]

SMILES: NC(=O)c1cccc(NC=O)c1 [Compound 1, 3-formylaminobenzamide]
- reduction in growth rate ([1]; 0.5 to 2.0 mM): 7%
- kt (generation number) ([1]; GUP 2814, DHS/EMEM, 1.0 mM, control 2.44): 2.29 doublings
- kt (generation number) ([1]; GUP 2814, ES/EMEM (first experiment), 1.0 mM, control 2.02): 1.56 doublings
- kt (generation number) ([1]; GUP 2814, ES/EMEM (second experiment), 1.0 mM, control 2.36): 2.14 doublings
- kt (generation number) ([1]; GUP 2814, ES/EMEM, 0.5 mM, control 1.95): 2.09 doublings
- kt (generation number) ([1]; GUP 2814, FCS/EMEM, 1.0 mM, control 2.143): 1.92 doublings
- activity at 500 µM ([1]; Trypanosoma brucei, RHODESIENSE, 0.5 mM, n = 6, control 1.00, read-out: Relative Growth Rate (S.D., n)): 105 ± 13%
- activity at 1000 µM ([1]; Trypanosoma brucei, RHODESIENSE, 1.0 mM, n = 11, control 1.00, read-out: Relative Growth Rate (S.D., n)): 103 ± 23%
- activity at 2000 µM ([1]; Trypanosoma brucei, RHODESIENSE, 2.0 mM, n = 6, control 1.00, read-out: Relative Growth Rate (S.D., n)): 93 ± 22%
- activity at 1000 µM ([1]; Trypanosoma brucei, RHODESIENSE, GUP 2814, DHS/EMEM, 1.0 mM, control 100, read-out: Relative Growth): 93.9%
- activity at 1000 µM ([1]; Trypanosoma brucei, RHODESIENSE, GUP 2814, ES/EMEM (first experiment), 1.0 mM, control 100, read-out: Relative Growth): 77.2%
- activity at 1000 µM ([1]; Trypanosoma brucei, RHODESIENSE, GUP 2814, ES/EMEM (second experiment), 1.0 mM, control 100, read-out: Relative Growth): 90.8%
- activity at 500 µM ([1]; Trypanosoma brucei, RHODESIENSE, GUP 2814, ES/EMEM, 0.5 mM, control 100, read-out: Relative Growth): 107%
- activity at 1000 µM ([1]; Trypanosoma brucei, RHODESIENSE, GUP 2814, FCS/EMEM, 1.0 mM, control 100, read-out: Relative Growth): 89.6%
- inhibition at 5 µM ([2]; 5.0 μM, read-out: Inhibitor Activity (%)): 66%
- Ki ([2]; poly(ADP-ribose)polymerase, read-out: Ki (Inhibition Constant)): 1610 ± 150 nM
- switching frequency, from ILTat 1.63 to 1.22 ([3]; 1 mM, Horse Serum (Bristol), two of three experiments): reproducible reduction of switching frequency
- σf (finite switch rate per trypanosome per generation) ([3]; DHS/EMEM, 1.0 mM, control 210.8): 117.0 x10^-2
- σf (finite switch rate per trypanosome per generation) ([3]; ES/EMEM (first experiment), 1.0 mM, control 5.3): 2.26 x10^-2
- σf (finite switch rate per trypanosome per generation) ([3]; ES/EMEM (second experiment), 1.0 mM, control 2.17): 0.94 x10^-2
- σf (finite switch rate per trypanosome per generation) ([3]; ES/EMEM, 0.5 mM, control 13.65): 0.95 x10^-2
- σf (finite switch rate per trypanosome per generation) ([3]; FCS/EMEM, 1.0 mM, control 0.46): 0.72 x10^-2
- activity at 1000 µM ([3]; Trypanosoma brucei, RHODESIENSE, read-out: RAS (relative antigenic switching), DHS/EMEM, 1.0 mM, control 100): 55.5%
- activity at 1000 µM ([3]; Trypanosoma brucei, RHODESIENSE, read-out: RAS (relative antigenic switching), ES/EMEM (first experiment), 1.0 mM, control 100): 42.6%
- activity at 1000 µM ([3]; Trypanosoma brucei, RHODESIENSE, read-out: RAS (relative antigenic switching), ES/EMEM (second experiment), 1.0 mM, control 100): 43.5%
- activity at 500 µM ([3]; Trypanosoma brucei, RHODESIENSE, read-out: RAS (relative antigenic switching), ES/EMEM, 0.5 mM, control 100): 7%
- activity at 1000 µM ([3]; Trypanosoma brucei, RHODESIENSE, read-out: RAS (relative antigenic switching), FCS/EMEM, 1.0 mM, control 100): 136%
